Where two headings read alike, the source gives them in different places.
Assays:
[1] = biological target: T1, CDK2/cyclin A2 (Homo sapiens, UniProt P24941); experiment: Human CDK2/cyclin A2 inhibitory activity (QS S Assist CDK2/Cyclin A2_FP Kit, IMAP fluorescence polarization); assay type: biochemical
T1 construct: purchased Carna Biosciences, Inc. QS S Assist CDK2/Cyclin A2_FP Kit
Method in brief: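 Kinase activity read as fluorescence polarization (485/535 nm) after phosphorylated fluorescent substrate binds IMAP reagent (30 min, RT, dark). Enzyme (2.5 ng/well) reacted 60 min at RT with ATP/substrate/metal in HEPES pH 7.4 buffer with Tween 20 and DTT; no-enzyme wells define 0% activity; IC50 by curve fit.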

[2] = biological target: T2, CDK4/cyclin D3 (Homo sapiens, UniProt P11802); experiment: Human CDK4/cyclin D3 inhibitory activity (QS S Assist CDK4/Cyclin D3_FP Kit, IMAP fluorescence polarization); assay type: biochemical
T2 construct: purchased Carna Biosciences, Inc. QS S Assist CDK4/Cyclin D3_FP Kit
T2 sequence (P11802 whole entry): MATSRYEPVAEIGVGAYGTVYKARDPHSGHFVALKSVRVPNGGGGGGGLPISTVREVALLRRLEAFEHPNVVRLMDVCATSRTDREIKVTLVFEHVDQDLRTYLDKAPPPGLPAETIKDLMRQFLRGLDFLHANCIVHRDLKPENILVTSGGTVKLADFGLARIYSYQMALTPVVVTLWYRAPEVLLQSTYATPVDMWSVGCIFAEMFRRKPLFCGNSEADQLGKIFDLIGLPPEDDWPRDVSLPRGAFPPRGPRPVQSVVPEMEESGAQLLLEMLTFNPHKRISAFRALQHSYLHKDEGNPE
T2 sequence (P30281 whole entry partner): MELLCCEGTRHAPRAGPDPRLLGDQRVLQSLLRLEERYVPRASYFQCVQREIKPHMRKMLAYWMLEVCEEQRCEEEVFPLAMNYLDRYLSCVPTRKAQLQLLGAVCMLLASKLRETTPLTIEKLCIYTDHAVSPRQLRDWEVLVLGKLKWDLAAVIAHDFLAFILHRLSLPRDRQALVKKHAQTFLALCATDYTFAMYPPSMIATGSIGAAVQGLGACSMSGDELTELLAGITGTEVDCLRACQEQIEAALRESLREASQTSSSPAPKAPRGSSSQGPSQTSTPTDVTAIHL
Method in brief: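 IMAP fluorescence-polarization kinase assay with kit ATP/substrate/metal mix and 12.5 to 25 ng/well enzyme in 20 mM HEPES pH 7.4, 0.01% Tween20, 2 mM DTT. Reaction ran 45 min at room temperature, then binding reagent was added for 30 min in the dark. IC50 was taken from dose-response fits of percent inhibition.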

[3] = 50% inhibitory concentration against CDK2/cyclin A2, given as class symbol
[4] = 50% inhibitory concentration against CDK4/cyclin D3, given as class symbol
[5] = Human CDK2/cyclin A2 inhibitory activity, read-out: CDK2 Activity symbol
[6] = Human CDK4/cyclin D3 inhibitory activity, read-out: CDK4 Activity symbol

SMILES	IC50 [1, 3] [nM]	IC50 [2, 4] [nM]	IC50 [1, 5] [nM]	IC50 [2, 6] [nM]
C[C@@H](O)c1cc2cnc(Nc3ccc(CN4CCC(O)CC4)cn3)nc2c(N[C@H]2CC[C@H](O)CC2)n1 [Compound 1064]	≥ 100	< 10		
CO[C@H](C)c1cc2cnc(Nc3ccc(CN4[C@@H](C)COC[C@@H]4C)cn3)nc2c(NC(C)C)n1 [Compound 280]			≥ 100	≥ 100
CC(C)Nc1nc(C2(C)COC2)cc2cnc(Nc3ccc(N4CCN(CC(=O)O)CC4C(F)(F)F)cn3)nc12 (stereo not shown) [Compound 890]	≥ 100	10 to 100		
CC(C)Nc1nc(C2CCOC2)cc2cnc(Nc3ccc(N4CCNCC4)nn3)nc12 (stereo not shown) [Compound 877]	≥ 100	< 10		
COC(=O)CCc1ccc(Nc2ncc3cc(C(F)F)nc(NC(C)C)c3n2)nc1 [Compound 102]			≥ 100	10 to 100
C[C@@H](O)c1nc(N[C@H]2CCCOC2)c2nc(Nc3ccc(OCCN(C)C)cn3)ncc2c1Cl [Compound 719]	≥ 100	< 10		
CC(O)c1cc2cnc(Nc3ccc(N4CCNCC4)cn3)nc2c(Nc2ccn[nH]2)n1 (stereo not shown) [Compound 27]			≥ 100	10 to 100
CNCCOc1ccc(Nc2ncc3cc([C@@H](C)O)nc(NC4CCC(C)(C)OC4)c3n2)nc1 (stereo partly shown) [Compound 634]	≥ 100	< 10		
C[C@@H](O)c1cc2cnc(Nc3ccc(CN4CCCC(O)C4)cn3)nc2c(N[C@H]2CC[C@H](O)CC2)n1 (stereo partly shown) [Compound 1086]	≥ 100	< 10		
CCNc1nc([C@@H](C)O)cc2cnc(Nc3ccc(N4CCNCC4)cn3)nc12 [Compound 1001]	≥ 100	< 10		
CNC1CCN(c2ccc(Nc3ncc4cc([C@@H](C)O)nc(NC(C)C)c4n3)nn2)CC1 [Compound 497]			≥ 100	< 10
CNC1CC2(C1)CN(c1ccc(Nc3ncc4cc([C@@H](C)OC)nc(N[C@H]5CCCOC5)c4n3)nc1)C2 [Compound 1009]	≥ 100	< 10		
CO[C@H](C)c1cc2cnc(Nc3ccc(N4CCN(CC(=O)O)CC4C(F)(F)F)cn3)nc2c(NC(C)C)n1 (stereo partly shown) [Compound 891]	≥ 100	10 to 100		
CC(C)Nc1nc(C(F)F)cc2cnc(Nc3ccc(CN4CCCC4=O)cn3)nc12 [Compound 165]			≥ 100	< 10
CC(O)c1cc2cnc(Nc3ccc(N4CCNCC4)cn3)nc2c(NCc2ccccc2)n1 (stereo not shown) [Compound 69]			≥ 100	< 10
CC1(c2cc3cnc(Nc4ccc(CN5CCNCC5)cn4)nc3c(NCC3CC(F)(F)C3)n2)COC1 [Compound 1110]	≥ 100	< 10		
CC(C)Nc1nc(C(C)O)cc2cnc(Nc3ccc(C4COCCN4)cn3)nc12 (single isomer, unassigned) [Compound 865]	≥ 100	< 10		
COC1CCN(c2ccc(Nc3ncc4cc([C@@H](C)O)nc(NC(C)C)c4n3)nn2)CC1 [Compound 761]	≥ 100	< 10		
CCNc1nc([C@@H](C)O)cc2cnc(Nc3ccc(CN4CCN(CCO)CC4)c(C)n3)nc12 [Compound 1046]	≥ 100	< 10		
C[C@@H](O)c1cc2cnc(Nc3ccc4c(n3)CCN(C(=O)OCCN(C)C)C4)nc2c(N[C@H]2CCCOC2)n1 [Compound 1143]	≥ 100	< 10		
CC(C)Nc1nc([C@@H](C)O)cc2cnc(Nc3ccc(N4CCN(C(=O)C(C)C)CC4)nn3)nc12 [Compound 746]	≥ 100	< 10		
CN(C)CCOC(=O)N1CCc2nc(Nc3ncc4cc(C5CCOC5)nc(N[C@H]5CCCOC5)c4n3)ccc2C1 (stereo partly shown) [Compound 1136]	≥ 100	< 10		
Cc1nc(Nc2ncc3cc(C4CCOC4)nc(NC(C)C)c3n2)ccc1N1CCNCC1=O (single isomer, unassigned) [Compound 876]	≥ 100	< 10		
CC(C)Nc1nc([C@@H](C)O)cc2cnc(Nc3ccc(N4CCC(N(C)C)C4)nn3)nc12 (stereo partly shown) [Compound 1219]	≥ 100	< 10		
C[C@@H](O)c1cc2cnc(Nc3ccc(CN4CCC(CO)CC4)cn3)nc2c(N[C@H]2CCCOC2)n1 [Compound 1156]	≥ 100	< 10		
CC(C)Nc1nc(C(F)F)cc2cnc(Nc3ccc(OCCN4CCCC4=O)cn3)nc12 [Compound 103]			≥ 100	< 10
CCN1CCN(Cc2ccc(Nc3ncc4cc([C@@H](C)O)nc(NC(C)(C)COC)c4n3)nc2)CC1 [Compound 244]			≥ 100	< 10
CC(=O)N(C)Cc1ccc(Nc2ncc3cc(C(F)F)nc(NC(C)C)c3n2)nc1 [Compound 139]			10 to 100	< 10
CN[C@H]1CC[C@@H](Oc2ccc(Nc3ncc4cc([C@@H](C)O)nc(NC(C)C)c4n3)nc2)CC1 [Compound 738]	≥ 100	< 10		
